# Reference: paper PMC4342090, “A novel inhibitor of Plasmodium falciparum spermidine synthase: a twist in the tail” (Malaria Journal, 2015)
# “Also recorded” adds a separate entry of the source. Like-named read-outs stand apart in the source and are kept apart here. Peptide text beside a SMILES is read from it.
# B1: Plasmodium falciparum spermidine synthase lacking 39 amino acids at the N-terminus (enzyme, UniProt Q8II73 40-321, looked up)
# chain: SKKWFSEFSIMWPGQAFSLKIKKILYETKSKYQNVLVFESTTYGKVLVLDGVIQLTEKDEFAYHEMMTHVPMTVSKEPKNVLVVGGGDGGIIRELCKYKSVENIDICEIDETVIEVSKIYFKNISCGYEDKRVNVFIEDASKFLENVTNTYDVIIVDSSDPIGPAETLFNQNFYEKIYNALKPNGYCVAQCESLWIHVGTIKNMIGYAKKLFKKVEYANISIPTYPCGCIGILCCSKTDTGLTKPNKKLESKEFADLKYYNYENHSAAFKLPAFLLKEIENI
# notes: Plasmodium falciparum spermidine synthase (EC 2.5.1.16), protein lacking 39 amino acids at the N-terminus, cloned into the p15-TEV-LIC vector, from SGC Toronto; Crystallised with compound 8 and MTA; Three molecules in the asymmetric unit; subunits B and C form the homodimer; also called PfSpdS; 39 amino acid N-terminal truncated PfSpdS protein; source: expression and isolation according to Dufe …
# Tests used:
# [1] = target: T1, PfSpdS (Plasmodium falciparum, UniProt Q8II73); settings: cited from earlier work; for IC50: P. falciparum, read-out: Enzyme inhibition, IC50
# T1 sequence (Q8II73 entry or part of it): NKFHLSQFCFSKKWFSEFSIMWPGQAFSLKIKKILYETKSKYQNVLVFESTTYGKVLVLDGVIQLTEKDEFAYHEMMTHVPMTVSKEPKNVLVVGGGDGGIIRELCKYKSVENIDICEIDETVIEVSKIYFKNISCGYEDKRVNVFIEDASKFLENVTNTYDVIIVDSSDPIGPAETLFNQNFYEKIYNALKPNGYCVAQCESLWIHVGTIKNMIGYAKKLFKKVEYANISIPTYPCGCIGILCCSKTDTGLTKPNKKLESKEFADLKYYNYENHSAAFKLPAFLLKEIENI
# [2] = target: T1, PfSpdS; test: biochemical; format: biochemical; settings: for inhibition at 100 µM: read-out: % Inhibition (at 100 μM); for fold difference in IC50 between compound 8 and compound 9: PfSpdS; for pseudo-substrate for PfSpdS: unpublished results of the authors
# Protocol: A 29 amino acid N-terminus deletion mutant of PfSpdS cloned into pTRCHisB (Invitrogen) was expressed in E. coli BLR (DE3), purified and assayed as described by Haider et al. [18]. […] Stock solutions of the inhibitors were prepared in dddH2O. For the 100 μM assays, 1 μg purified PfSpdS, 50 μM RS-dcAdoMet, 100 nCi [2,3-^3H] putrescine hydrochloride (60 Ci/mmol; American Radiolabelled Chemicals, Inc, Minnesota, USA) and 50 μM unlabelled putrescine dihydrochloride (Sigma) were used. […] All inhibition assays were performed in triplicate.
# [3] = test system: mammalian SpdS; settings: cited from earlier work; for IC50: Mammalian, read-out: Enzyme inhibition, IC50
# [4] = test system: mammalian SpdS; test: Mammalian spermidine synthase enzyme inhibition; format: biochemical
# [5] = test system: mammalian spermine synthase; design: method as in Shirahata et al. [22]; settings: ref Shirahata et al. [22], cited from earlier work
# [6] = target: the molecule itself; test: crystal structure; hanging drop vapour diffusion, 293 K; 25% PEG3350, 0.1 M MES pH 5.6, 0.1 M (NH4)2SO4; protein pre-incubated with 2.5 mM compound 8 and MTA; space group C121, three molecules in the asymmetric unit; interface analysed with PISA
# [7] = ref Lakanen et al. [21], Pegg et al. [38]
# [8] = 100 μM compound, PfSpdS activity inhibited compared to untreated enzyme, mean ± SEM, 100 µM
molecule,measurement,setting,value
5′-methylthioadenosine [MTA],IC50,[1]; ref Haider et al. [18],159 ± 27 µM
"C[C@H]1CC[C@H](N)CC1 [4MCHA, trans-4-methylcyclohexylamine]",IC50,[1]; ref Haider et al. [18],1.4 ± 0.1 µM
same,inhibition at 100 µM,[2],95.3 ± 0.4%
same,IC50,[3]; [7],1.7 µM
"C=CCCCN [APE, 5-amino-1-pentene]",IC50,[1]; ref Haider et al. [18],6.5 ± 2.1 µM
same,IC50,[3]; ref Goda et al. [39],1.7 µM
"NCCCCCC(CCN)SCC1OC(n2cnc3c(N)ncnc32)C(O)C1O (stereo not shown) [AdoDATO, S-adenosyl-1,8-diamino-3-thio-octane]",fold lower IC50 for mammalian SpdS compared to the P. falciparum enzyme,"[4]; ref [18],[20],[38]",170 fold
same,fold less efficient inhibitor of mammalian SpdS than adenosylspermidine,"[4]; ref [21],[38]",3-7 fold
same,IC50,[1]; ref Dufe et al. [20],8.5 µM
same,IC50,[3]; [7],0.05 to 0.1 µM
"CC1CCN(CCCN)CC1 [Compound 1, 1-(3-ammoniopropyl)-4-methylpiperidin-1-ium]",inhibition at 100 µM,[2],17 ± 9.4%
"CN1CCC(N)CC1 [Compound 2, trans-4-amino-1-methylpiperidine]",inhibition at 100 µM,"[2]; 100 μM compound, PfSpdS activity inhibited compared to untreated enzyme, mean ± SEM",6.9 ± 5.8%
NCCCC[C@H](NC(=O)[C@@H](N)Cc1ccc(O)cc1)C(N)=O [Compound 3] (H-Tyr-Lys-NH2),% Inhibition (at 100 μM),[2]; [8],No Inhibition; also recorded: did not inhibit
"NCCCN1CCN(CCCN)CC1 [Compound 4, 3-[4-(3-azaniumylpropyl)piperazine-1,4-diium-1-yl]propylazanium]",% Inhibition (at 100 μM),[2]; [8],No Inhibition; also recorded: did not inhibit
"CN1CCN(CCC(=O)NNC=C2C=CC(=O)C=C2O)CC1 [Compound 5, N’-[(2-hydroxy-4-oxocyclohexa-2,5-dien-1-ylidene)methyl]-3-(4-methylpiperazine-1,4-diium-1-yl)-propanehydrazide]",% Inhibition (at 100 μM),[2]; [8],No Inhibition
same,% Inhibition (at 100 μM),"[2]; 100 μM compound, PfSpdS activity inhibited compared to untreated enzyme, mean ± SEM, listed as compound 5, 100 µM",neither compound showed reduction in PfSpdS activity
"CN(C[C@H](O)CN)C[C@H](O)CN1CCCCC1 [Compound 6, [(2R)-3-azaniumyl-2-hydroxypropyl]-[(2S)-2-hydroxy-3-piperidin-1-ium-1-ylpropyl]-methylazanium]",% Inhibition (at 100 μM),[2]; [8],No Inhibition
same,% Inhibition (at 100 μM),"[2]; 100 μM compound, PfSpdS activity inhibited compared to untreated enzyme, mean ± SEM, listed as compound 6, 100 µM",neither compound showed reduction in PfSpdS activity
"NCCCC[C@H](NC(=O)[C@@H](N)CCCCN)C(=O)Nc1ccc2ccccc2c1 [Compound 7, [(2S)-6-azaniumyl-1-[[(2S)-6-azaniumyl-1-(naphthalen-2-ylamino)-1-oxohexan-2-yl]amino]-1-oxohexan-2-yl]azanium]",% Inhibition (at 100 μM),[2]; [8],No Inhibition
same,% Inhibition (at 100 μM),"[2]; 100 μM compound, PfSpdS activity inhibited compared to untreated enzyme, mean ± SEM, listed as compound 7, 100 µM",showed no inhibition
"NCCCN[C@H]1CC[C@H](N)CC1 [Compound 8, N-(3-aminopropyl)-trans-cyclohexane-1,4-diamine]",IC50,[2],619 ± 144 µM
same,fold difference in IC50 between compound 8 and compound 9,[2],100 fold
same,inhibition at 100 µM,[2],12.7 ± 9.1%
same,pseudo-substrate for PfSpdS,[2],acts as a pseudo-substrate
"NCCCNC1CCCCC1 [Compound 9, N-(3-aminopropyl)-cyclohexylamine]",IC50,[2],7.4 ± 2.4 µM
same,Ki,[2],2.8 µM
same,fold difference in IC50 between compound 8 and compound 9,[2],100 fold
same,type of inhibition,"[2]; between compound and putrescine, preliminary kinetic experiments",mixed-type competitive inhibition
same,inhibition at 100 µM,[2],88.3 ± 1.2%
same,pseudo-substrate for PfSpdS,[2],no evidence was found
same,inhibition of mammalian SpdS,[3]; ref Shirahata et al. [22],does not inhibit
same,inhibition of mammalian SpdS,"[3]; ref Shirahata et al. [22], listed as compound 9",did not inhibit and not
same,inhibition of mammalian spermine synthase,[5],inhibitor
same,inhibition of mammalian spermine synthase,[5]; listed as compound 9,potent inhibitor
NC1CCCCC1 [Cyclohexylamine],IC50,[1]; ref Haider et al. [18],19.7 ± 3.1 µM
same,IC50,[3]; ref Shirahata et al. [22],8.1 µM
"C[S+](CCCN)C[C@H]1O[C@@H](n2cnc3c(N)ncnc32)[C@H](O)[C@@H]1O (stereo partly shown) [dcAdoMet, decarboxylated S-adenosylmethionine]",Km,"[1]; P. falciparum enzyme, ref [18],[20],[38], read-out: Km value of the enzyme for dcAdoMet",35 µM
same,Km,"[3]; mammalian enzyme, ref [18],[20],[38], read-out: Km value of the enzyme for dcAdoMet",7 to 25 µM
"N[C@H]1CC[C@H](N)CC1 [trans-1,4-diaminocyclohexane]",pseudo-substrate for mammalian SpdS,[3]; ref [22],~ 12%
B1,binding result,[6],binds
